Measurements as given in ChEMBL document CHEMBL1201862, “PubChem BioAssay data set” (2004).
Active and inactive are the calls of the source.

Key:
[1] = viability of PTEN-deleted HCT116 cells – cell-based, HCT116 PTEN knockout, dose response (AID 1047); format: functional;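 note: HCT116 colon tumor cells with PTEN knocked out; cells exposed to compound for 60 hours before readout; potency for loss of cell viability measured by luminescence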
[2] = viability of HCT116 lacking mutant beta-catenin – cell-based, human colon tumor, dose response (AID 1045); format: functional;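 note: HCT116 colon tumor cells with beta catenin knocked out; cells exposed to compound for 60 hours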
[3] = viability loss in HepG2 hepatoma cells – cell-based, ATP luminescence, cherry-pick, activator set 2, cytotoxicity control, dose response (AID 1053143); format: functional
[4] = non-specific 3'UTR reporter inhibition in Clone20-Shn3RL – cell-based, Renilla luciferase, cherry-picked, counter-screen for Shn3 inhibitor project, dose response (AID 624133); format: functional
Paired box protein Pax-8 = Paired box protein Pax-8 (Homo sapiens, UniProt Q06710); assay: PAX8 transcriptional activity inhibition in RMG-I – RMG-I cells, luciferase, cherry-pick, dose response (AID 687027); format: functional, cell-based;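 note: luciferase reporter driven by Pax8 target thyroperoxidase promoter measured by SteadyGlo luminescence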
[5] = loss of viability in HepG2 cells – cell-based, CellTiter-Glo, cherry-picked, cytotoxicity control for Shn3 inhibitor project, dose response (AID 624134); format: functional
[6] = reduction of Shn3 3'UTR-driven luciferase in osteoblasts – cell-based, Clone20 osteoblasts, firefly luciferase, cherry-picked, dose response (AID 624132); format: functional;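 note: firefly luciferase luminescence from reporter carrying the Shn3 3'UTR in osteoblasts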
Caspase-6 = Caspase-6 (Homo sapiens, UniProt P55212); assay: inhibition of CASP6 peptide cleavage – biochemical, VEID-R110 fluorescence, cherry-pick, dose response (AID 720632)
Genome polyprotein = Genome polyprotein (dengue virus type 2, UniProt P29990); assay: flavivirus cap methylation enzyme inhibition – biochemical, confirmation dose response, primary screen (AID 588689); format: functional
[7] = HIV-1 Vif–A3G interaction blockers – biochemical, TR-FRET, GST-Vif 1-94, biotin-A3G peptide, dose response retest, primary screen (AID 1117319); format: functional;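 note: TR-FRET signal of purified GST-Vif binding a biotinylated A3G peptide; inhibitors lower the FRET signal by blocking Vif and A3G binding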
[8] = target: NAD-dependent protein deacylase sirtuin-5, mitochondrial (Homo sapiens, UniProt Q9NXA8); assay: sirtuin-5 deacylation blockers, concentration series – biochemical, fluorescence imaging, cherry-pick, set 5, dose response (AID 720591);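 note: desuccinylation of succinyl peptide AMC substrate read as fluorescence after trypsin release; potency of inhibitors that lower fluorescence and may act on trypsin instead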
[9] = Luminescence-based cell-based high throughput dose response assay to identify activators of the DAF-12 from the parasite S. stercoralis (ssDAF-12).; format: functional
[10] = target: T1, Oxysterols receptor LXR-beta (Homo sapiens, UniProt P55055); assay: LXR agonists, Gal4 luciferase reporter, dose response, counter-screen for ssDAF-12 agonist project, cell-based, luminescence, HEK293, S. stercoralis campaign (AID 720737); format: functional; settings: read-out: IC50 (the source's name)
T1 sequence (P55055 whole entry): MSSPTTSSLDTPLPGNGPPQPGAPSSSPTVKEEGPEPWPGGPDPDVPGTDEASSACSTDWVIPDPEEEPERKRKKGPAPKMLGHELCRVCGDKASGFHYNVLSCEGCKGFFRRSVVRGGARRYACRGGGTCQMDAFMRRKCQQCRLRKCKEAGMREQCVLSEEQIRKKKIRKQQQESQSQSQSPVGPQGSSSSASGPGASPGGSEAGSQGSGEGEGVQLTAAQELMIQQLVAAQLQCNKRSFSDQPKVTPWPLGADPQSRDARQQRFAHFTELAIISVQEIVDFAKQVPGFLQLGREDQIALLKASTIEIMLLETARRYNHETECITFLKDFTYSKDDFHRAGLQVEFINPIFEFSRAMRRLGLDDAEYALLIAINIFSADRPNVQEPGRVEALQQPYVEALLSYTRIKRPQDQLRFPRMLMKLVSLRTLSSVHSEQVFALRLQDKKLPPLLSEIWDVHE

cells [11] = settings: HEK293
[12] = blockade of melanocortin 4 receptor signaling – cell-based, plate reader, cherry pick, counter-screen for LGR2 antagonist project, dose response (AID 743444); format: functional;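 note: transfected HEK 293 cells stimulated with alpha-MSH peptide; potency of inhibitors of the alpha-MSH evoked signal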
[13] = toxicity toward HepG2 liver cells – cell-based, plate reader, cherry-pick, antagonist series, cytotoxicity control, dose response (AID 743416); format: functional
[14] = blockers of bursicon-stimulated LGR2 cAMP reporter – cell-based, HEK293, CRE-luciferase reporter, cherry pick, set 2, dose response (AID 743343); format: functional;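 note: transfected cells were stimulated with diluted bursicon conditioned medium after compound addition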
[15] = target: T1, Oxysterols receptor LXR-beta; format: functional, cell-based
[16] = A549 cell cytotoxicity, dose response, cytotoxicity control, plate reader, cherry-pick, antagonist series (AID 743412); format: functional, cell-based
[17] = viability loss in HEK293 cells – cell-based, plate reader, cherry-picked samples, cytotoxicity control, dose response (AID 743446); format: functional
[18] = viability loss in human Jurkat cells – cell-based, luminescence, cytotoxicity control for P. falciparum gametocyte viability project, dose response (AID 1117277); format: functional;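 note: potency reflects loss of cellular ATP meaning fewer viable cells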
[19] = viability inhibitors of stage V gametocytes – luminescence, dose response (AID 1117278); format: functional, cell-based;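 note: gametocytes exposed to compound for 24 hours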
[20] = HGIII-sPLA2 enzyme inhibition potency – biochemical, QFRET, IC50, dose response (AID 743457);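 note: green fluorescence rise as the enzyme cleaves BODIPY PC-A2 in liposomes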
Nonstructural protein 1 = Nonstructural protein 1 (Influenza A virus, UniProt Q194T2); format: functional, Influenza A virus (A/California/07/2009(H1N1))
Mu-type opioid receptor = Mu-type opioid receptor (Homo sapiens, UniProt P35372); format: functional, cell-based;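 note: U2OS cells with beta-arrestin recruitment to OPRM1 by beta-gal complementation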
cells [21] = assay: cells
[22] = target: 5-hydroxytryptamine receptor 2A (Mus musculus, UniProt P35363); format: functional, cell-based;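 note: CHO-K1 cells with tagged receptor and beta-arrestin; agonist potency measured as compound-induced activation of the receptor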
[23] = inhibition of ADAM10 peptide cleavage – biochemical, FRET peptide substrate, recombinant human ADAM10, selectivity assay for ADAM17 exosite inhibitor project, dose response (AID 743259);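 note: ADAM10 enzyme cleaving a FRET peptide substrate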
[24] = target: Disintegrin and metalloproteinase domain-containing protein 17 (Homo sapiens, UniProt P78536); assay: exosite inhibitors of ADAM17, dose response, biochemical (AID 743260)
Chain of Disintegrin and metalloproteinase domain-containing protein 17 (P78536 whole entry, the tested form may be a part): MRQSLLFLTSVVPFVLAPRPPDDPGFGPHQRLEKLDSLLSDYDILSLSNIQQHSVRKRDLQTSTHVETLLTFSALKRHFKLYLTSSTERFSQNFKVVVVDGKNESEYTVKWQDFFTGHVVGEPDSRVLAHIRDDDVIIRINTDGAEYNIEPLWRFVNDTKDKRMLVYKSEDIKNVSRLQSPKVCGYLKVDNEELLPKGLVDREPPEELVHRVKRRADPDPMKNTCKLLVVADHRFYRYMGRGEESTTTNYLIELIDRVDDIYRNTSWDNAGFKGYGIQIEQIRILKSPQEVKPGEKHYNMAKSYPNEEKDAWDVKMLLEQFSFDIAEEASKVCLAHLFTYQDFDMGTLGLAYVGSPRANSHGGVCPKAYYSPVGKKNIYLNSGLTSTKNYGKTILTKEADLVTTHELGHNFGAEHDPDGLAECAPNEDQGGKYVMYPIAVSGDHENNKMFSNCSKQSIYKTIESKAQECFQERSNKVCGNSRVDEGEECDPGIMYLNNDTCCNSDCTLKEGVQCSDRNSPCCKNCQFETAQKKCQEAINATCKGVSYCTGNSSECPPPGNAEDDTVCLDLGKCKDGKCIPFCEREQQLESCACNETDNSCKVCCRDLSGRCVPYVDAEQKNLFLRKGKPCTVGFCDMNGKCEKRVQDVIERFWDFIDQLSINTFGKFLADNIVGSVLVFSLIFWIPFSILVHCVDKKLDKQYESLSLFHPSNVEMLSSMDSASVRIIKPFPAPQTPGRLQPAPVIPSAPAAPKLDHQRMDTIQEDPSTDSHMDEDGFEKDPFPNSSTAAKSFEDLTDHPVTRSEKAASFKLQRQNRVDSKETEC

Chain of 5-hydroxytryptamine receptor 2A (P35363 whole entry): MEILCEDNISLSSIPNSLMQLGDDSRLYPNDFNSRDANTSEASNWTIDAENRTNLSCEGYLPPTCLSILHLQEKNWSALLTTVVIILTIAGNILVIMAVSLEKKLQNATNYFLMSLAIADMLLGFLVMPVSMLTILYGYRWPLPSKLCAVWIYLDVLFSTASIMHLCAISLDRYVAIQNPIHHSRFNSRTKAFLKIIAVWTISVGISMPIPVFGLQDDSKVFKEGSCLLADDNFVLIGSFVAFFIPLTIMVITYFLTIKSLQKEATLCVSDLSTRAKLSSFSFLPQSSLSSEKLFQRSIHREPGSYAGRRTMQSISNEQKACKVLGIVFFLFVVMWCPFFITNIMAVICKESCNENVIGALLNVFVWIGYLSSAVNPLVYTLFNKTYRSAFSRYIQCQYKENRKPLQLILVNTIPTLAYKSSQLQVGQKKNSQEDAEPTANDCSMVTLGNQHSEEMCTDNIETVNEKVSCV
Chain of NAD-dependent protein deacylase sirtuin-5, mitochondrial (Q9NXA8 whole entry): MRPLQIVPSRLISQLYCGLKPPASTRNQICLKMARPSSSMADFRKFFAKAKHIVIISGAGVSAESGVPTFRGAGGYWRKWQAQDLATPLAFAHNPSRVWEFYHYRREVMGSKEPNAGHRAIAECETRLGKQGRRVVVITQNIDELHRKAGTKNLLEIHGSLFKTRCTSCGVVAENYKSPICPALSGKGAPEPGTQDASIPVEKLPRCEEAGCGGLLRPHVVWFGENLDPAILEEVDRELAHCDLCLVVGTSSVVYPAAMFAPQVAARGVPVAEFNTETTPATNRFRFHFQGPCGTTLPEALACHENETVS
Chain of Mu-type opioid receptor (P35372 whole entry): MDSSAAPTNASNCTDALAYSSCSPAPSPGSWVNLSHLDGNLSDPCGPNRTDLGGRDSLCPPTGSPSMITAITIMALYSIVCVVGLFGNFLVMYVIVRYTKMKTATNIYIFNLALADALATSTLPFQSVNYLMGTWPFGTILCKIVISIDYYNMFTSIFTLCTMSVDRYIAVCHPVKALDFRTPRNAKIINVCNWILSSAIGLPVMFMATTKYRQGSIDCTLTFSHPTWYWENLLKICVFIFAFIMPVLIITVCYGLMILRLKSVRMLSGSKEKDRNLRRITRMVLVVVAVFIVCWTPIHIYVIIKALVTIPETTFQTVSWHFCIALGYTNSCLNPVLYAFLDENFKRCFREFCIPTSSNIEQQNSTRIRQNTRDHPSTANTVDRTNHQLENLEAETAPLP
Chain of Genome polyprotein (P29990 2492-3391 limits assumed): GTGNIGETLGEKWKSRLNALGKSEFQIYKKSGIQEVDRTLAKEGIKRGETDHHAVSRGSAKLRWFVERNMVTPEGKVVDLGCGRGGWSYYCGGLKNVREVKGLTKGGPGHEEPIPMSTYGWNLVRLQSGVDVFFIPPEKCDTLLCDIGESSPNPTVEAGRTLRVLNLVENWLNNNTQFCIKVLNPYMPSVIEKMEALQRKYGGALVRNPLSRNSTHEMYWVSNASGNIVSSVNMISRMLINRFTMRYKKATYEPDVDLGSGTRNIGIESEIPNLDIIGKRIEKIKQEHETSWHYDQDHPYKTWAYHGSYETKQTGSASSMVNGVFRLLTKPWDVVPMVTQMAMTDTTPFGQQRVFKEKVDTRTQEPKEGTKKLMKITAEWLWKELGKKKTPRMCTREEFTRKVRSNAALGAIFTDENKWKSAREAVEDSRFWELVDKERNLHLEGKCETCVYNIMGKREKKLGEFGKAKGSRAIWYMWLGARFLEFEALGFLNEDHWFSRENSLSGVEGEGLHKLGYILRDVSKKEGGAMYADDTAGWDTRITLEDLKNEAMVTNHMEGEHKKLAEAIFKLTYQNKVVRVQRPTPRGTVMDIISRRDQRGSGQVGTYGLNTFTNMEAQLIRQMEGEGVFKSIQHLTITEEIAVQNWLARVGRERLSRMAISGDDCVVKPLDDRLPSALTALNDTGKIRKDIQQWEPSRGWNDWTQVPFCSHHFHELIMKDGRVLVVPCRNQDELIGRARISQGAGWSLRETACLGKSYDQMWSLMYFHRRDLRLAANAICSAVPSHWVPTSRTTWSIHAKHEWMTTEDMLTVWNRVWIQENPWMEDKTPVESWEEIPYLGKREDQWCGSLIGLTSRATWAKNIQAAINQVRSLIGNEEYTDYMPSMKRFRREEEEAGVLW
Chain of Paired box protein Pax-8 (Q06710 whole entry): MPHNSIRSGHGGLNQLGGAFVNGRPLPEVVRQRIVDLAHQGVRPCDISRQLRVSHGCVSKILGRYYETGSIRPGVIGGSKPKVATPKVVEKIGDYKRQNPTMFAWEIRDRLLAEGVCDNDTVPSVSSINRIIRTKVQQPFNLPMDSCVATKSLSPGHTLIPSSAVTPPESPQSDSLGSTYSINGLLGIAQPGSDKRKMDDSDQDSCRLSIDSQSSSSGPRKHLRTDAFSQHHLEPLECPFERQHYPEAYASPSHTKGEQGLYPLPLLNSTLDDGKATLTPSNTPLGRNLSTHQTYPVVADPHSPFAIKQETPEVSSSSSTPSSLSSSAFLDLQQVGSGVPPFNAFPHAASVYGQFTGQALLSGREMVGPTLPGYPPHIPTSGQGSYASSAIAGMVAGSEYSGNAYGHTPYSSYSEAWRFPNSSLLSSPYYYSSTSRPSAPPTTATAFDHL
Chain of Caspase-6 (P55212 24-179 limits assumed): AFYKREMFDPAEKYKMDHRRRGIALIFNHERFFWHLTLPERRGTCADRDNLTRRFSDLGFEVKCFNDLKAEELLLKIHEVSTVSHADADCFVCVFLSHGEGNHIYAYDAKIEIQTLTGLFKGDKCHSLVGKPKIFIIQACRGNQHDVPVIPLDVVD
Chain of Caspase-6 (P55212 194-293 limits assumed): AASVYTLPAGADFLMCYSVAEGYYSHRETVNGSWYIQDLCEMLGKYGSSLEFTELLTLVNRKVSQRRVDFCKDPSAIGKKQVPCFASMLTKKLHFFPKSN
Chain of Nonstructural protein 1 (Q194T2 whole entry): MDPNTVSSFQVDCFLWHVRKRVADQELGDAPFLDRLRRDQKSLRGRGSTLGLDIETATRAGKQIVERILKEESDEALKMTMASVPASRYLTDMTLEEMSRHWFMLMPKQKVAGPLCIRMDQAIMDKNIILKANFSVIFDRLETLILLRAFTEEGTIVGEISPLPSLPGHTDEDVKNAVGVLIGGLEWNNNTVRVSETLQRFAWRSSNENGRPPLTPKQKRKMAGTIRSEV

SMILES: Cc1cccc(/C=C(\c2nc3ccccc3[nH]2)S(=O)(=O)c2ccccc2)c1
- EC50 [1]: 2.33 µM (active)
- EC50 [2]: 2.37 µM (active)
- AC50 [3]: 11.1 µM (active)
- AC50 [4]: 7.04 µM (active)
- AC50 (Paired box protein Pax-8): 4.1 µM (active)
- AC50 [5]: 24.5 µM (active)
- AC50 [6]: 4.5 µM (active)

SMILES: O=C(O)c1cccc(N2C(=O)c3cc([N+](=O)[O-])cc4cc([N+](=O)[O-])cc(c34)C2=O)c1
- AC50 (Caspase-6): 8.47 µM (active)
- IC50 (Genome polyprotein): 26.7 µM (active)

SMILES: Cc1ccc(-n2c(Cc3cccn3C)nnc2SCC(=O)Nc2nnc(C)s2)cc1
- IC50 [7]: > 100 µM (active)

SMILES: COc1ccc(N(C(C)=O)c2nc3ccccc3[nH]2)cc1
- AC50 [8]: > 30 µM (inactive)

SMILES: COc1ccc(NC(=O)c2cc3ccccc3cc2OC)cc1
- IC50 [9]: > 67.5 µM (inactive)
- EC50 [10]: > 67.5 µM (inactive)

SMILES: COC(=O)C1=CN(C)C=C(C(=O)OC)C1c1ccccc1Cl
- AC50 (cells [11]): > 52 µM (inactive)

SMILES: Cc1ccc(-c2nc(-c3ccncc3)no2)cc1C
- AC50 [12]: 25.8 µM (active)
- AC50 [13]: > 52 µM (inactive)
- AC50 [14]: 17.8 µM (active)
- EC50 [15]: > 67.5 µM (inactive)

SMILES: O=C(Nc1ccc(NC(=O)c2ccco2)nc1)c1ccco1
- AC50 [12]: 8.62 µM (active)
- AC50 [14]: 6.67 µM (active)
- AC50 [16]: > 52 µM (inactive)

SMILES: Cc1ccc(-c2nnc(Nc3ccccc3)o2)cc1
- AC50 [12]: 25.6 µM (active)
- AC50 [13]: > 52 µM (inactive)
- AC50 [14]: 18.6 µM (active)
- AC50 [17]: > 52 µM (inactive)

SMILES: CC(C)CNC(=O)c1cccc(NC(=O)COc2ccc([N+](=O)[O-])cc2)c1
- IC50 [18]: > 83.3 µM (inactive)
- IC50 [19]: > 109 µM (inactive)

SMILES: CCN1C(=O)/C(=C2/C=Cc3ccccc3N2CC)SC1=S
- IC50 [20]: 94.1 µM (inactive)
- IC50 (Nonstructural protein 1): 9.45 µM (active)

SMILES: CN1CCc2c(sc(NC(=O)Cc3ccccc3)c2C#N)C1
- EC50 (Mu-type opioid receptor): 92.5 µM (inactive)
- AC50 (cells [21]): 66.1 µM (active)
- EC50 [22]: 48.2 µM (inactive)

SMILES: O=C1CC(Nc2ccc3ccccc3c2)C(=O)N1Cc1ccccc1 (stereo not given)
- IC50 [23]: > 69.5 µM (inactive)
- IC50 [24]: > 69.5 µM (inactive)

SMILES: COC(=O)c1c(NC(C)=O)sc(C(=O)Nc2ccccc2F)c1C
- AC50 [3]: 26 µM (active)
